Experimental data as given in patent publication US6806230B1, “Pyrimidine derivatives and herbicides containing them” (Kumiai Chemical Industry Co., Ltd., priority 1999, dated 2004).

What was measured:
Format in all cases: in vivo
[1] = tested on: green foxtail (Se); assay: Test Example 2: herbicidal effects by upland soil treatment; conditions: dose 100 g active ingredient per 10 ares, examined on the 21st day after treatment, standards of Table 44;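 note: 0-5 growth inhibition grade; 5 = over 90%; 4 = 70-90%; 3 = 50-70%; 2 = 30-50%; 1 = 10-30%; 0 = under 10%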
Description: In a 80 cm^2 plastic pot, upland soil was filled, and seeds of barnyard grass (Ec) and green foxtail (Se) were sown and covered with soil. A wettable powder prepared in accordance with Formulation Example 1 was diluted with water and uniformly applied to the soil surface by means of a small size spray at a rate of 100 l per 10 ares, so that the dose of the active ingredient would be 100 g per 10 ares. Thereafter, cultivation was carried out in a green house, and on the 21st day after the treatment, the herbicidal effects were examined in accordance with the standards as identified in Table 44.

[2] = tested on: barnyard grass (Ec); assay: as above; set-up: scale not given here; conditions: dose 100 g active ingredient per 10 ares, examined on the 21st day after treatment, standards of Table 44
In short: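 Pre-emergence test: barnyard grass and green foxtail sown in upland soil, then soil surface sprayed with wettable-powder formulation at 100 g active ingredient per 10 ares (100 l per 10 ares). Grown in greenhouse; herbicidal effect scored on a rating scale 21 days after treatment.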

[3] = tested on: barnyard grass (Eo); assay: Test Example 1: herbicidal effects by flooded paddy field treatment; set-up: herbicidal effects, Eo (barnyard grass):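 0-5 growth inhibition grade; 5 = over 90%; 4 = 70-90%; 3 = 50-70%; 2 = 30-50%; 1 = 10-30%; 0 = under 10%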; conditions: for herbicidal effects, Eo (barnyard grass): dose 100 g active ingredient per 10 ares, examined on the 21st day after treatment, standards of Table 44; for Herbicidal effect index, Eo: dose 100 gai/10a, examined on 21st day after treatment, index 0-5 per Table 44;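 for Herbicidal effect index, Eo: 0-5 growth inhibition grade; 5 = over 90%; 4 = 70-90%; 3 = 50-70%; 2 = 30-50%; 1 = 10-30%; 0 = under 10%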
In short: (§1)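 Pots hold puddled paddy soil; seeds are sown and the pots flooded 3 cm deep. Next day, diluted wettable powder goes dropwise onto the water at a dose of 100 g active ingredient per 10 ares, and herbicidal effects are rated after 21 days in a greenhouse.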

[4] = tested on: monochoria (Mo); assay: as above; set-up: herbicidal effects, Mo (monochoria):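 0-5 growth inhibition grade; 5 = over 90%; 4 = 70-90%; 3 = 50-70%; 2 = 30-50%; 1 = 10-30%; 0 = under 10%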; conditions: for herbicidal effects, Mo (monochoria): dose 100 g active ingredient per 10 ares, examined on the 21st day after treatment, standards of Table 44; for Herbicidal effect index, Mo: dose 100 gai/10a, examined on 21st day after treatment, index 0-5 per Table 44
In short: as §1

[5] = tested on: barnyard grass (Eo); assay: Test Example 4: selectivity for a crop plant by flooded paddy field treatment; set-up: scale not given here; conditions: for Eo (herbicidal effect index): barnyard grass, dose 25 gai/10a, 21st day after treatment, index per Table 44; for Eo (herbicidal effects, index): dose 25 g active ingredient per 10 ares, examined on the 21st day after treatment
In short: (§2)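 Rice at the second-leaf stage is transplanted into puddled, 3 cm-flooded paddy soil alongside sown weed seeds, and a diluted wettable powder is dripped onto the water surface the following day at 25 g a.i./10 ares. Effects are rated 21 days later.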

[6] = tested on: rice (Or); assay: as above; set-up: scale not given here; conditions: rice transplanted at second leaf stage; for Or (herbicidal effect index on crop): dose 25 gai/10a, 21st day after treatment, index per Table 44; for Or (effect on crop plant rice, index): dose 25 g active ingredient per 10 ares, examined on the 21st day after treatment
In short: as §2

[7] = tested on: monochoria (Mo); assay: as above; set-up: scale not given here; conditions: for Mo (herbicidal effect index): monochoria, dose 25 gai/10a, 21st day after treatment, index per Table 44; for Mo (herbicidal effects, index): dose 25 g active ingredient per 10 ares, examined on the 21st day after treatment
In short: as §2
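Throughout, for Herbicidal effect index, Mo: 0-5 growth inhibition grade; 5 = over 90%; 4 = 70-90%; 3 = 50-70%; 2 = 30-50%; 1 = 10-30%; 0 = under 10%.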

| Compound | herbicidal effects, Se (green foxtail) [1] | herbicidal effects, Ec (barnyard grass) [2] | herbicidal effects, Eo (barnyard grass) [3] | herbicidal effects, Mo (monochoria) [4] | Eo (herbicidal effect index) [5] | Or (herbicidal effect index on crop) [6] | Mo (herbicidal effect index) [7] | Herbicidal effect index, Eo [3] | Herbicidal effect index, Mo [4] | Eo (herbicidal effects, index) [5] | Or (effect on crop plant rice, index) [6] | Mo (herbicidal effects, index) [7] |
| --- | --- | --- | --- | --- | --- | --- | --- | --- | --- | --- | --- | --- |
| CCN(C(=O)Cc1ccc(C)cc1)C(c1cncnc1C(F)F)C(C)C (racemic) [Compound 1-171] | 4 | 5 | 5 | 5 | 5 | 1 | 5 | – | – | – | – | – |
| CC(C)C(c1cncnc1C(F)(F)F)N(C)C(=O)COc1ccccc1F (racemic) [Compound 1-125] | 5 | 5 | – | – | 5 | 0 | 5 | 5 | 5 | – | – | – |
| Cc1ccc(CC(=O)N(C)C(c2cncnc2C(F)(F)F)C(C)C)cc1Cl (racemic) [Compound 1-121] | 4 | 5 | – | – | 5 | 1 | 5 | 5 | 5 | – | – | – |
| COc1ccc(CC(=O)N(C)C(c2cncnc2C(F)(F)Cl)C(C)C)cc1 (racemic) [Compound 1-16] | 5 | 4 | – | – | – | – | – | 5 | 5 | 5 | 1 | 5 |
| CC(C)C(c1cncnc1C(F)(F)F)N(C)C(=O)Cc1cc(F)ccc1F (racemic) [Compound 1-40] | 4 | 5 | – | – | – | – | – | 5 | 5 | 5 | 0 | 5 |
| CC(C)C(c1cncnc1C(F)(F)F)N(C)C(=O)COc1cccc(F)c1 (racemic) [Compound 1-126] | 5 | 5 | – | – | 5 | 1 | 5 | 5 | 5 | – | – | – |
| CN(C(=O)Cc1ccc(F)cc1)C(c1ccccc1)c1cncnc1C(F)(F)F (racemic) [Compound 1-36] | 5 | 5 | – | – | – | – | – | 5 | 5 | 5 | 1 | 5 |
| Cc1ccc(C(c2cncnc2C(F)(F)F)N(C)C(=O)Cc2ccc(F)cc2)cc1 (racemic) [1-226] | 4 | 5 | 5 | 5 | 5 | 1 | 5 | – | – | – | – | – |
| CC(C)C(c1cncnc1C(F)(F)Cl)N(C)C(=O)Nc1ccccc1 (racemic) [Compound 1-38] | 4 | 5 | – | – | – | – | – | 5 | 5 | 5 | 0 | 5 |
| CCN(C(=O)Cc1ccc(F)cc1)C(c1cncnc1C(F)F)C(C)C (racemic) [Compound 1-169] | 5 | 5 | 5 | 5 | 5 | 1 | 5 | – | – | – | – | – |
| CCCN(C(=O)Cc1ccccc1)C(c1cncnc1C(F)(F)F)C(C)C (racemic) [Compound 1-63] | 5 | 5 | – | – | – | – | – | 5 | 5 | 5 | 1 | 5 |
| Cc1ccc(CC(=O)N(C)C(c2ccccc2)c2cncnc2C(F)(F)F)cc1 (racemic) [1-197] | 5 | 5 | 5 | 5 | 5 | 0 | 5 | – | – | – | – | – |
| CC(C)C(c1cncnc1C(F)(F)Cl)N(C)C(=O)Sc1ccccc1 (racemic) [Compound 1-17] | 4 | 4 | – | – | – | – | – | 5 | 5 | 5 | 1 | 5 |
| Cc1ccc(NC(=O)N(C)C(c2cncnc2C(F)(F)Cl)C(C)C)cc1 (centres unmarked) [Compound 1-37, N-methyl-N-[2-methyl-1-(4-chlorodifluoromethylpyrimidin-5-yl)propyl]-N′-(4-methylphenyl)urea] | 5 | 5 | – | – | – | – | – | 5 | 5 | – | – | – |
| CC(C)c1ncncc1C(C(C)C)N(C)C(=O)Cc1ccccc1 (racemic) [Compound 1-128] | 5 | 5 | 5 | 4 | – | – | – | – | – | – | – | – |
| CCN(C(=O)Cc1cccc(F)c1)C(c1cncnc1C(F)(F)F)C(C)C (racemic) [1-173] | 5 | 5 | 5 | 5 | – | – | – | – | – | – | – | – |
| CCN(C(=O)Cc1ccc(C(F)(F)F)cc1)C(c1cncnc1C(F)(F)F)C(C)C (racemic) [1-174] | 5 | 5 | 5 | 5 | – | – | – | – | – | – | – | – |
| CN(C(=O)Cc1ccc(F)cc1)C(c1cncnc1C(F)(F)F)C1CC1 (racemic) [Compound 1-35] | 5 | 5 | – | – | – | – | – | 5 | 5 | – | – | – |
| CC(C)C(c1cncnc1C(F)F)N(C)C(=O)Cc1ccc(Cl)cc1 (racemic) [Compound 1-165] | 5 | 5 | 5 | 5 | – | – | – | – | – | – | – | – |
| CC(C)C(c1cncnc1C(F)(F)F)N(C)C(=O)Cc1cccc(F)c1F (racemic) [Compound 1-148] | 5 | 5 | 5 | 5 | – | – | – | – | – | – | – | – |
